Active and inactive are the calls of the source. No cut-off for these calls is given here.
Assays:
MGC-803 [1] = test: Inhibition of AKT-mTOR signaling in human […] cells assessed as decrease in phosphorylated mTOR expression at 10 to 20 uM incubated for 48 hrs by Western blot analysis; type: cell-based; details: dose 10-20 µM
MGC-803 [2] = test: Induction of apoptosis in human MGC-803 cells assessed as increase in cleaved caspase 9 level incubated for 48 hrs by Western blot analysis; type: functional, cell-based; details: dose 10-20 µM
HONE1 cell line = test: Anticancer activity against human HONE1 cell line assessed as inhibition of cell proliferation incubated for 72 hrs by MTT assay; type: functional, cell-based; details: HONE1, 72 h
MGC-803 [3] = test: Induction of apoptosis in human MGC-803 cells assessed as increase in cleaved PARP level incubated for 48 hrs by Western blot analysis; type: functional, cell-based; details: dose 10-20 µM
[4] = Cytotoxicity against HEK293 cells assessed as inhibition of cell proliferation incubated for 72 hrs by MTT assay; type: toxicity, cell-based; details: human
[5] = biological target: Receptor tyrosine-protein kinase erbB-4 (Homo sapiens, UniProt Q15303); test: Inhibition of HER4 (unknown origin) in presence of ATP at Km concentration
Receptor tyrosine-protein kinase erbB-4, sequence (Q15303 whole entry): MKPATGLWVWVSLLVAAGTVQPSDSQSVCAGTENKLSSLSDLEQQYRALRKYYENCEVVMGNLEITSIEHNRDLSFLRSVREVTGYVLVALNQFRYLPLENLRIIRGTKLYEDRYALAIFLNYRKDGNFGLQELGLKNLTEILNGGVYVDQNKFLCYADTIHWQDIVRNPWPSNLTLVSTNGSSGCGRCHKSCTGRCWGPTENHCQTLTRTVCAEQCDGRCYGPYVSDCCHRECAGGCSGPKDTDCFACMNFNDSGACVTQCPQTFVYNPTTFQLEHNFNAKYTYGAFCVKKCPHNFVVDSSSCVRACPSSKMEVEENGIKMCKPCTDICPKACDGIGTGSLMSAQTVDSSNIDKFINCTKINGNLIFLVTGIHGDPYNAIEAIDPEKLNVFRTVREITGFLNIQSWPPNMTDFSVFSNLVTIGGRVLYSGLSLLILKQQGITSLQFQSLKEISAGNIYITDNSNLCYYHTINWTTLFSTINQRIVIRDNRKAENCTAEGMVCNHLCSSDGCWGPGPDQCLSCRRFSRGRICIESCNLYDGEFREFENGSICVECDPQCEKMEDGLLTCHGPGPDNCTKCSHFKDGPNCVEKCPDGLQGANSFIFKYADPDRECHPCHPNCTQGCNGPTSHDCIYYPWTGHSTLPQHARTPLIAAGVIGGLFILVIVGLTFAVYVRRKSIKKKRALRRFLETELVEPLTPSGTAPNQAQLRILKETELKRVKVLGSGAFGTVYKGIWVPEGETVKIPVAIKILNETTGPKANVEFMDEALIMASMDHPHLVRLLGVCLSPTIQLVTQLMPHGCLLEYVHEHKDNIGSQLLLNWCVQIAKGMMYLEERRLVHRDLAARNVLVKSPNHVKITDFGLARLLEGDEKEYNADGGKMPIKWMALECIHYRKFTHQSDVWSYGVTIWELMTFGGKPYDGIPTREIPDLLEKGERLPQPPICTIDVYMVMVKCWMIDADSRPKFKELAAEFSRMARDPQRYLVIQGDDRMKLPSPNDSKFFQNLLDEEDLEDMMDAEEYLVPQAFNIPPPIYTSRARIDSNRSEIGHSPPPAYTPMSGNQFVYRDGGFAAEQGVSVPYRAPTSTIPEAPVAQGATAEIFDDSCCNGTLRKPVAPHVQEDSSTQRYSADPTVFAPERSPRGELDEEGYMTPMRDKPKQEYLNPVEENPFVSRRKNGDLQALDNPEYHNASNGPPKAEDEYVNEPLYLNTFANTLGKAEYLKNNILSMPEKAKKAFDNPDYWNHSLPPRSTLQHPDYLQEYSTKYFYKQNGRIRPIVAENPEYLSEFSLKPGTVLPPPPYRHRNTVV

HGC-27 [6] = test: Effect on mTOR expression in human HGC-27 cells at 5 to 15 uM incubated for 48 hrs by Western blot analysis; type: functional, cell-based; details: dose 5-15 µM
HGC-27 [7] = test: Induction of apoptosis in LC3B knockout human HGC-27 cells assessed as increase in cleaved PARP level at 15 uM by Western blot analysis; type: functional, cell-based
[8] = Cytotoxicity against human L02 cells assessed as inhibition of cell proliferation incubated for 72 hrs by MTT assay; type: toxicity, cell-based
HGC-27 [9] = test: Anticancer activity against human HGC-27 cells assessed as inhibition of cell proliferation incubated for 72 hrs by MTT assay; type: functional, cell-based; details: HGC-27, 72 h
MGC-803 [10] = test: Cell cycle arrest in human MGC-803 cells assessed as accumulation of cells at G1 phase at 10 to 20 uM incubated for 48 hrs by flow cytometric analysis; type: functional, cell-based; details: dose 10-20 µM
HGC-27 [11] = test: Antitumor activity against human HGC-27 cells xenografted in female BALB/c nude mouse model assessed as reduction in tumor volume at 30 mg/kg/day, ip administered for 21 days; type: functional, organism-based; details: time 21.0 day
[12] = Tmax in Sprague-Dawley rat at 5 mg/kg, po or 5 mg/kg, iv measured after 24 hrs by LC-MS/MS analysis; type: ADME, organism-based; details: in vivo
MGC-803 [13] = test: cells; details: Homo sapiens, MGC-803, 48 h
Description: Antiproliferative activity against human MGC-803 cells assessed as inhibition of cell viability incubated for 48 hrs by MTT assay

HGC-27 [14] = test: Downregulation of BMX protein expression in human HGC-27 cells incubated for 48 hrs by Western blot analysis; type: functional, cell-based; details: dose 5-15 µM
HCT-116 = test: Anticancer activity against human HCT-116 cells assessed as inhibition of cell proliferation incubated for 72 hrs by MTT assay; type: functional, cell-based; details: HCT-116, 72 h
[15] = Cytotoxicity against human GES1 cells assessed as inhibition of cell proliferation incubated for 72 hrs by MTT assay; type: toxicity, cell-based
4T1 = test: Anticancer activity against mouse 4T1 cells assessed as inhibition of cell proliferation incubated for 72 hrs by MTT assay; type: functional, cell-based; details: 4T1, 72 h
MGC-803 [16] = test: Induction of autophagy in human MGC-803 cells assessed as decrease in p62 protein expression incubated for 48 hrs by Western blot analysis; type: functional, cell-based; details: dose 10-20 µM
HGC-27 [17] = test: Antitumor activity against human HGC-27 cells xenografted in female BALB/c nude mouse model assessed as reduction in tumor weight at 30 mg/kg/day, ip administered for 21 days; type: functional, organism-based; details: time 21.0 day
HGC-27 [18] = test: Induction of apoptosis in human HGC-27 cells assessed as increase in cleaved caspase 3 level incubated for 48 hrs by Western blot analysis; type: functional, cell-based; details: dose 5-15 µM
HGC-27 [19] = test: cells; details: Homo sapiens, HGC-27, 48 h
Description: Antiproliferative activity against human HGC-27 cells assessed as inhibition of cell viability incubated for 48 hrs by MTT assay

AGS = test: Anticancer activity against human AGS cells assessed as inhibition of cell proliferation incubated for 72 hrs by MTT assay; type: functional, cell-based
[20] = Toxicity in female BALB/c nude mouse model xenografted with human HGC-27 cells assessed as effect on heart at 30 mg/kg, ip administered for 21 days by H and E staining based analysis; type: organism-based; details: in vivo, 504 h, time 21 day
[21] = biological target: Tyrosine-protein kinase JAK3 (Homo sapiens, UniProt P52333); test: Inhibition of JAK3 (unknown origin) in presence of ATP at Km concentration
Tyrosine-protein kinase JAK3, sequence (P52333 whole entry): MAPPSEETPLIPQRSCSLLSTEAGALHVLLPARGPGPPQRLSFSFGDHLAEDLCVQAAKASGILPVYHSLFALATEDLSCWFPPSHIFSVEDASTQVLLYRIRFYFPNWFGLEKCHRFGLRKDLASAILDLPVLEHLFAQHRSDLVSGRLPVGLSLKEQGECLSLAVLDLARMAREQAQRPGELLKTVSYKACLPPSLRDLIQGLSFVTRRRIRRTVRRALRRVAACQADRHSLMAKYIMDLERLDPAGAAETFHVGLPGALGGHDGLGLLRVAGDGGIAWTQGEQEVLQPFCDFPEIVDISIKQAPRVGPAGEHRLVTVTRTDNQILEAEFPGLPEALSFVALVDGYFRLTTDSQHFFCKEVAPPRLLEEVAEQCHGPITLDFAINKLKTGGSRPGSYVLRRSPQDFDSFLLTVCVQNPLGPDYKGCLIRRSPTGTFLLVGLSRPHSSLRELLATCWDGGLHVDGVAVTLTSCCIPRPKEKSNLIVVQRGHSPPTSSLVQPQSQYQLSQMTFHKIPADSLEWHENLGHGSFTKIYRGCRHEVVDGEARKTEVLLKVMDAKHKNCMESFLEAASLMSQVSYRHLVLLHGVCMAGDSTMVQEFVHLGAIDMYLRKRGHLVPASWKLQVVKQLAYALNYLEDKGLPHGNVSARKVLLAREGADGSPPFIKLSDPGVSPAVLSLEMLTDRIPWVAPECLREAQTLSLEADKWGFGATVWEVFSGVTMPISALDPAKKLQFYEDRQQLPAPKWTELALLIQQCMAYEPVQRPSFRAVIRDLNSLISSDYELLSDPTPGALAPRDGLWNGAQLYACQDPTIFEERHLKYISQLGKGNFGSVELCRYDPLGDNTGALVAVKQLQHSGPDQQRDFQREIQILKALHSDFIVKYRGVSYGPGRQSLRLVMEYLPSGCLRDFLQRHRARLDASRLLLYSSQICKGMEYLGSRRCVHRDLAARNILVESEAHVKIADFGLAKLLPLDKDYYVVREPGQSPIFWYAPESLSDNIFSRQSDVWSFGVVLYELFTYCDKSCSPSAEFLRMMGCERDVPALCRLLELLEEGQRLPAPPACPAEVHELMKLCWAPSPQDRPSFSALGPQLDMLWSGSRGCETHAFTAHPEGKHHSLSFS

HGC-27 [22] = test: Antitumor activity against human HGC-27 cells xenografted in female BALB/c nude mouse model assessed as reduction in tumor growth at 30 mg/kg/day, ip administered for 21 days relative to control; type: functional; design: scale not given: the % may be the effect or the level left; details: time 21 day
HGC-27 [23] = test: Inhibition of colony formation in human HGC-27 cells assessed as decrease in clonogenic ability at 2.5 to 10 uM incubated for 48 hrs by crystal violet staining based analysis; type: functional, cell-based; details: dose 2.5-10 µM
MGC-803 [24] = test: Induction of apoptosis in LC3B knockout human MGC-803 cells assessed as increase in cleaved PARP level at 20 uM by Western blot analysis; type: functional, cell-based
HGC-27 [25] = test: Induction of apoptosis in human HGC-27 cells assessed as increase in cleaved caspase 9 level incubated for 48 hrs by Western blot analysis; type: functional, cell-based; details: dose 5-15 µM
MGC-803 [26] = test: Antiproliferative activity against human MGC-803 cells assessed as reduction in number of EdU-positive cells incubated for 48 hrs by confocal laser scanning microscopic analysis; type: functional, cell-based; details: dose 5-15 µM
[27] = Metabolic stability in rat liver microsomes assessed as intrinsic clearance at 100 uM measured upto 60 mins in presence of NADPH by LC-MS/MS analysis; type: ADME, Microsome; details: read-out: CLH
HGC-27 [28] = test: Induction of autophagy in human HGC-27 cells assessed as decrease in p62 protein expression incubated for 48 hrs by Western blot analysis; type: functional, cell-based; details: dose 5-15 µM
MGC-803 [29] = test: Antiproliferative activity against human MGC-803 cells assessed as inhibition of cell viability incubated for 24 to 72 hrs by MTT assay; type: functional, cell-based; details: dose <= 50.0 µM, time 24-72 hrs
NCI-H460 = test: cells; details: Homo sapiens, NCI-H460, 72 h
Description: Anticancer activity against human NCI-H460 cells assessed as inhibition of cell proliferation incubated for 72 hrs by MTT assay

MGC-803 [30] = test: Induction of autophagy in human MGC-803 cells assessed as increase in LC3B protein expression incubated for 48 hrs by Western blot analysis; type: functional, cell-based; details: dose 10-20 µM
C6661 = test: Anticancer activity against human C666-1 cells assessed as inhibition of cell proliferation incubated for 72 hrs by MTT assay; type: functional, cell-based; details: C6661, 72 h
HGC-27 [31] = test: Induction of apoptosis in LC3B knockout human HGC-27 cells assessed as increase in cleaved caspase 9 level at 15 uM by Western blot analysis; type: functional, cell-based
HGC-27 [32] = test: Inhibition of AKT-mTOR signaling in human HGC-27 cells assessed as decrease in phosphorylated AKT expression at 5 to 15 uM incubated for 48 hrs by Western blot analysis; type: cell-based; details: dose 5-15 µM
[33] = biological target: Tyrosine-protein kinase ITK/TSK (Homo sapiens, UniProt Q08881); test: Inhibition of ITK (unknown origin) in presence of ATP at Km concentration
Tyrosine-protein kinase ITK/TSK, sequence (Q08881 whole entry): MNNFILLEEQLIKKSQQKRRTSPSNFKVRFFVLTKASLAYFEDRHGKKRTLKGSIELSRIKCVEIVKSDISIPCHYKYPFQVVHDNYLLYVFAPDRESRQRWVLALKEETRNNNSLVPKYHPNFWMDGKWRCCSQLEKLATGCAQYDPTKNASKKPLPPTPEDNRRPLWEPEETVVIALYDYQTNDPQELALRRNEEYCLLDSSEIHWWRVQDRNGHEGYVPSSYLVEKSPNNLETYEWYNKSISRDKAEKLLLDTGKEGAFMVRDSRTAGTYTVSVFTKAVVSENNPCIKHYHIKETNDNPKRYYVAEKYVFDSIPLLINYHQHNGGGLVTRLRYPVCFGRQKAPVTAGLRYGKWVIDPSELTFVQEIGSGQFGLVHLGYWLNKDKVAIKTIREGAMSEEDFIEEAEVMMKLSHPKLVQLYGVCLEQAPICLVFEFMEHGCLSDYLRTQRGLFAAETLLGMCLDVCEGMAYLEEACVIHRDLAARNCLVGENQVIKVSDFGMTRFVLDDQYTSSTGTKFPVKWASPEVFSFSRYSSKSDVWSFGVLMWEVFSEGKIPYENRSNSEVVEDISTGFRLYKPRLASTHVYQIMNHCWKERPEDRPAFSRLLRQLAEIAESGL

[34] = Toxicity in female BALB/c nude mouse model xenografted with human HGC-27 cells assessed as effect on lung at 30 mg/kg, ip administered for 21 days by H and E staining based analysis; type: organism-based; details: in vivo, 504 h, time 21 day

**Q.** For `C=CS(=O)(=O)N1CCC[C@@H](Nc2nc(N)nc(Nc3cccc(Oc4ccccc4)c3)n2)C1`, which inhibition (MGC-803 [1]) is on record?
**A.** Its inhibition is “Active”.

**Q.** And the Activity (MGC-803 [2])?
**A.** The Activity was “Dose-dependent-effect”.

**Q.** And the IC50 (HONE1 cell line)?
**A.** The IC50 was 15.7 µM.

**Q.** What about the Activity (MGC-803 [3]) of the same molecule?
**A.** Its Activity is “Dose-dependent-effect”.

**Q.** What about the IC50 at 72 h [4] of the same molecule?
**A.** The IC50 at 72 h was over 32 µM.

**Q.** What about the IC50 [5] of the same molecule?
**A.** Its IC50 is over 1 µM.

**Q.** What about the Activity (HGC-27 [6]) of the same molecule?
**A.** Its Activity is “inactive”.

**Q.** What about the Activity (HGC-27 [7]) of the same molecule?
**A.** Its Activity is “Active”.

**Q.** What about the IC50 at 72 h [8] of the same molecule?
**A.** Its IC50 at 72 h is over 32 µM.

**Q.** What about the IC50 (HGC-27 [9]) of the same molecule?
**A.** Its IC50 is 9.6 µM.

**Q.** What about the Activity (MGC-803 [10]) of the same molecule?
**A.** The Activity was “Active”.

**Q.** And the Activity (HGC-27 [11])?
**A.** Its Activity is “Active”.

**Q.** And the Tmax [12]?
**A.** Its Tmax is 6 min.

**Q.** And the IC50 (MGC-803 [13])?
**A.** The IC50 was 15.2 µM.

**Q.** What about the Activity (HGC-27 [14]) of the same molecule?
**A.** The Activity was “Dose-dependent-effect”.

**Q.** And the IC50 (HCT-116)?
**A.** Its IC50 is 15.9 µM.

**Q.** What about the IC50 at 72 h [15] of the same molecule?
**A.** Its IC50 at 72 h is 21.2 µM.

**Q.** What about the IC50 (4T1) of the same molecule?
**A.** The IC50 was 16.6 µM.

**Q.** And the Activity (MGC-803 [16])?
**A.** The Activity was “Dose-dependent-effect”.

**Q.** And the Activity (HGC-27 [17])?
**A.** The Activity was “Active”.

**Q.** And the Activity (HGC-27 [18])?
**A.** Its Activity is “Dose-dependent-effect”.

**Q.** And the IC50 (HGC-27 [19])?
**A.** The IC50 was 10.5 µM.

**Q.** And the IC50 (AGS)?
**A.** Its IC50 is 8 µM.

**Q.** And the Activity [20]?
**A.** Its Activity is “Non-toxic”.

**Q.** What about the IC50 [21] of the same molecule?
**A.** Its IC50 is 0.437 µM.

**Q.** And the Activity (HGC-27 [22])?
**A.** The Activity was 49.93%.

**Q.** And the inhibition (HGC-27 [23])?
**A.** The inhibition was “Active”.

**Q.** And the Activity (MGC-803 [24])?
**A.** The Activity was “Active”.

**Q.** And the Activity (HGC-27 [25])?
**A.** The Activity was “Dose-dependent-effect”.

**Q.** And the Activity (MGC-803 [26])?
**A.** Its Activity is “Dose-dependent-effect”.

**Q.** What about the microsomal CLint at 100 µM [27] of the same molecule?
**A.** The microsomal CLint at 100 µM was 304 µL/min/mg.

**Q.** What about the Activity (HGC-27 [28]) of the same molecule?
**A.** The Activity was “Dose-dependent-effect”.

**Q.** And the Activity (MGC-803 [29])?
**A.** The Activity was “Dose-dependent-effect”.

**Q.** And the IC50 (NCI-H460)?
**A.** Its IC50 is 16.7 µM.

**Q.** What about the Activity (MGC-803 [30]) of the same molecule?
**A.** The Activity was “Dose-dependent-effect”.

**Q.** And the IC50 (C6661)?
**A.** The IC50 was 14.9 µM.

**Q.** And the Activity (HGC-27 [31])?
**A.** Its Activity is “Active”.

**Q.** And the inhibition (HGC-27 [32])?
**A.** The inhibition was “Active”.

**Q.** What about the IC50 [33] of the same molecule?
**A.** The IC50 was over 1 µM.

**Q.** What about the Activity [34] of the same molecule?
**A.** The Activity was “Non-toxic”.
